# System: 993429-296-R-J1-PDC complex spheroid growth, percent test/control
# Test: Anticancer human tumor 993429-296-R-J1-PDC patient-derived uterine sarcoma cell line growth inhibition [Asc]
# Settings: for IC50: curve of first compound; for viability, T/C: stronger effect = lower value
# Summary of the method: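 Complex spheroids combining tumor cells with HUVEC endothelial cells and human MSCs, at 37 degrees C, 5% CO2; agents tested alone or combined, half-log dilutions from at or near clinical Cmax, or 10 microM if Cmax unknown.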
# [1] = second compound 0.03 µM, first compound 0.00316 µM
# [2] = second compound 0.03 µM, first compound 0.01 µM
# [3] = second compound 0.03 µM, first compound 0.0316 µM
# [4] = second compound 0.03 µM, first compound 0.1 µM
# [5] = second compound 0.0949 µM, first compound 0.00316 µM
# [6] = second compound 0.0949 µM, first compound 0.01 µM
# [7] = second compound 0.0949 µM, first compound 0.0316 µM
# [8] = second compound 0.0949 µM, first compound 0.1 µM
# [9] = second compound 0.3 µM, first compound 0.00316 µM
# [10] = second compound 0.3 µM, first compound 0.01 µM
# [11] = second compound 0.3 µM, first compound 0.0316 µM
# [12] = second compound 0.3 µM, first compound 0.1 µM
# [13] = second compound 0.949 µM, first compound 0.00316 µM
# [14] = second compound 0.949 µM, first compound 0.01 µM
# [15] = second compound 0.949 µM, first compound 0.0316 µM
# [16] = second compound 0.949 µM, first compound 0.1 µM
# [17] = second compound 3 µM, first compound 0.00316 µM
# [18] = second compound 3 µM, first compound 0.01 µM
# [19] = second compound 3 µM, first compound 0.0316 µM
# [20] = second compound 3 µM, first compound 0.1 µM
# 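Further: spheroids exposed to compounds for seven days.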
smiles,measurement,setting,value
COc1c(OCCCN2CCOCC2)ccc2c3n(c(=NC(=O)c4cnc(N)nc4)nc12)CCN3 + CCN1C(C(=O)NC23CCC(C(=O)O)(CC2)CC3)C(c2cccc(Cl)c2F)C2(C(=O)Nc3cc(Cl)ccc32)C12CCCCC2,IC50,second compound 0.03 µM,24.5 nM
same,IC50,second compound 0.0949 µM,26.1 nM
same,IC50,second compound 0.3 µM,23.5 nM
same,IC50,second compound 0.949 µM,29.1 nM
same,IC50,second compound 3 µM,21.8 nM
same,"viability, T/C",[1],94.7%
same,"viability, T/C",[2],84.8%
same,"viability, T/C",[3],40.2%
same,"viability, T/C",[4],6.36%
same,"viability, T/C","second compound 0.03 µM, first compound 0.316 µM",4.17%
same,"viability, T/C","second compound 0.03 µM, first compound 1 µM",1.31%
same,"viability, T/C",[5],82.9%
same,"viability, T/C",[6],86.2%
same,"viability, T/C",[7],43%
same,"viability, T/C",[8],7.8%
same,"viability, T/C","second compound 0.0949 µM, first compound 0.316 µM",3.21%
same,"viability, T/C","second compound 0.0949 µM, first compound 1 µM",1.48%
same,"viability, T/C",[9],96.6%
same,"viability, T/C",[10],73.5%
same,"viability, T/C",[11],44.7%
same,"viability, T/C",[12],8.77%
same,"viability, T/C","second compound 0.3 µM, first compound 0.316 µM",3.89%
same,"viability, T/C","second compound 0.3 µM, first compound 1 µM",1.15%
same,"viability, T/C",[13],78.4%
same,"viability, T/C",[14],89.8%
same,"viability, T/C",[15],47.4%
same,"viability, T/C",[16],7.2%
same,"viability, T/C","second compound 0.949 µM, first compound 0.316 µM",4.24%
same,"viability, T/C","second compound 0.949 µM, first compound 1 µM",1.63%
same,"viability, T/C",[17],81.4%
same,"viability, T/C",[18],70%
same,"viability, T/C",[19],41%
same,"viability, T/C",[20],7.7%
same,"viability, T/C","second compound 3 µM, first compound 0.316 µM",3.98%
same,"viability, T/C","second compound 3 µM, first compound 1 µM",1.49%
NC(=O)C(=Cn1cnc(-c2cc(C(F)(F)F)cc(C(F)(F)F)c2)n1)c1cncnc1 + CCN1C(C(=O)NC23CCC(C(=O)O)(CC2)CC3)C(c2cccc(Cl)c2F)C2(C(=O)Nc3cc(Cl)ccc32)C12CCCCC2,IC50,second compound 0.03 µM,18.6 nM
same,IC50,second compound 0.0949 µM,15.5 nM
same,IC50,second compound 0.3 µM,14 nM
same,IC50,second compound 0.949 µM,20.3 nM
same,IC50,second compound 3 µM,13.3 nM
same,"viability, T/C","second compound 0.03 µM, first compound 0.000949 µM",98%
same,"viability, T/C","second compound 0.03 µM, first compound 0.003 µM",97.9%
same,"viability, T/C","second compound 0.03 µM, first compound 0.00949 µM",71%
same,"viability, T/C","second compound 0.03 µM, first compound 0.03 µM",34%
same,"viability, T/C","second compound 0.03 µM, first compound 0.0949 µM",17.8%
same,"viability, T/C","second compound 0.03 µM, first compound 0.3 µM",9.36%
same,"viability, T/C","second compound 0.0949 µM, first compound 0.000949 µM",95.3%
same,"viability, T/C","second compound 0.0949 µM, first compound 0.003 µM",87%
same,"viability, T/C","second compound 0.0949 µM, first compound 0.00949 µM",63.4%
same,"viability, T/C","second compound 0.0949 µM, first compound 0.03 µM",31.9%
same,"viability, T/C","second compound 0.0949 µM, first compound 0.0949 µM",14.9%
same,"viability, T/C","second compound 0.0949 µM, first compound 0.3 µM",8.83%
same,"viability, T/C","second compound 0.3 µM, first compound 0.000949 µM",89.3%
same,"viability, T/C","second compound 0.3 µM, first compound 0.003 µM",85.6%
same,"viability, T/C","second compound 0.3 µM, first compound 0.00949 µM",55.4%
same,"viability, T/C","second compound 0.3 µM, first compound 0.03 µM",33.4%
same,"viability, T/C","second compound 0.3 µM, first compound 0.0949 µM",19.7%
same,"viability, T/C","second compound 0.3 µM, first compound 0.3 µM",9.08%
same,"viability, T/C","second compound 0.949 µM, first compound 0.000949 µM",83%
same,"viability, T/C","second compound 0.949 µM, first compound 0.003 µM",90%
same,"viability, T/C","second compound 0.949 µM, first compound 0.00949 µM",83.3%
same,"viability, T/C","second compound 0.949 µM, first compound 0.03 µM",33%
same,"viability, T/C","second compound 0.949 µM, first compound 0.0949 µM",14%
same,"viability, T/C","second compound 0.949 µM, first compound 0.3 µM",7.67%
same,"viability, T/C","second compound 3 µM, first compound 0.000949 µM",81.7%
same,"viability, T/C","second compound 3 µM, first compound 0.003 µM",87.5%
same,"viability, T/C","second compound 3 µM, first compound 0.00949 µM",55.4%
same,"viability, T/C","second compound 3 µM, first compound 0.03 µM",29.8%
same,"viability, T/C","second compound 3 µM, first compound 0.0949 µM",13%
same,"viability, T/C","second compound 3 µM, first compound 0.3 µM",8.21%
NC1CCC(NC2CC2c2ccccc2)CC1 (stereo not given) + CCN1C(C(=O)NC23CCC(C(=O)O)(CC2)CC3)C(c2cccc(Cl)c2F)C2(C(=O)Nc3cc(Cl)ccc32)C12CCCCC2,IC50,second compound 0.03 µM,> 100 nM
same,IC50,second compound 0.0949 µM,> 100 nM
same,IC50,second compound 0.3 µM,> 100 nM
same,IC50,second compound 0.949 µM,> 100 nM
same,IC50,second compound 3 µM,> 100 nM
same,"viability, T/C","second compound 0.03 µM, first compound 0.000316 µM",76.4%
same,"viability, T/C","second compound 0.03 µM, first compound 0.001 µM",75.4%
same,"viability, T/C",[1],80.2%
same,"viability, T/C",[2],77.8%
same,"viability, T/C",[3],81.4%
same,"viability, T/C",[4],91.8%
same,"viability, T/C","second compound 0.0949 µM, first compound 0.000316 µM",91.1%
same,"viability, T/C","second compound 0.0949 µM, first compound 0.001 µM",77.5%
same,"viability, T/C",[5],74.7%
same,"viability, T/C",[6],66.8%
same,"viability, T/C",[7],93%
same,"viability, T/C",[8],81.5%
same,"viability, T/C","second compound 0.3 µM, first compound 0.000316 µM",98.2%
same,"viability, T/C","second compound 0.3 µM, first compound 0.001 µM",74.7%
same,"viability, T/C",[9],69%
same,"viability, T/C",[10],80.2%
same,"viability, T/C",[11],69.3%
same,"viability, T/C",[12],83.8%
same,"viability, T/C","second compound 0.949 µM, first compound 0.000316 µM",72%
same,"viability, T/C","second compound 0.949 µM, first compound 0.001 µM",76.9%
same,"viability, T/C",[13],83.1%
same,"viability, T/C",[14],83.2%
same,"viability, T/C",[15],76.6%
same,"viability, T/C",[16],88.9%
same,"viability, T/C","second compound 3 µM, first compound 0.000316 µM",75.2%
same,"viability, T/C","second compound 3 µM, first compound 0.001 µM",85.6%
same,"viability, T/C",[17],79.7%
same,"viability, T/C",[18],74.1%
same,"viability, T/C",[19],70.3%
same,"viability, T/C",[20],71%

# Reference: PubChem BioAssay AID1963446 (Molecular Pharmacology Branch, DTP, NCI, 2024)
